# Measured values as given in patent US6906205B2, “Spiro and dispiro 1,2,4-trioxolane antimalarials” (Medicines for Malaria Venture MMV, priority 2002, dated 2005).
# Key:
# [1] = system: P. falciparum NF54 strain (sensitive to standard antimalarials); experiment: semiautomated microdilution assay, [3H]-hypoxanthine incorporation, NF54 strain; type: cell-based, Plasmodium falciparum; settings: NF54 strain, 72 h incubation
# In short: (§1)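 Asynchronous stock cultures → intraerythrocytic forms; semiautomated microdilution; IC50 by logit regression.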
# [2] = system: ANKA strain of P. berghei; experiment: single dose STI in vivo screen in infected mice; design: species or system Plasmodium berghei; settings: for Activity (%) po / Survival (days) po: single 10 mg/kg po in 3% ethanol and 7% Tween 80; for Activity (%) po / Activity (%) sc / Activity (%) SSVpo: mice; for Activity (%) sc / Survival (days) sc: single 10 mg/kg sc in 3% ethanol and 7% Tween 80; for Activity (%) SSVpo: single po dose in standard suspending vehicle (SSV); for Survival (days) po / Survival (days) sc / Survival (days) SSVpo: untreated control 5.6 ± 0.3; for Survival (days) SSVpo: single po dose in SSV
# In short: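 Groups of 3-5 Moro SPF or NMRI mice infected with the ANKA strain of P. berghei received a single dose of trioxolane on day one post-infection. The compound was given in 3% ethanol and 7% Tween 80 or in SSV (0.5% w/v CMC, 0.5% v/v benzyl alcohol, 0.4% v/v Tween 80, 0.9% w/v sodium chloride in water). Antimalarial activity was scored as percent reduction in parasitemia on day three and as survival time versus untreated controls. Survival to day 30 counted as cure.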
# [3] = system: P. falciparum K1 strain (Thailand resistant to chloroquine); experiment: semiautomated microdilution assay, [3H]-hypoxanthine incorporation, K1 strain; type: cell-based, Plasmodium falciparum; settings: K1 strain, 72 h incubation
# In short: as §1
# [4] = percent reduction in parasitemia day 3 post-infection
SMILES,IC50 (ng/ml) NF54 [1],"Activity (%) po [2, 4]","Activity (%) sc [2, 4]","Activity (%) SSVpo [2, 4]",Survival (days) po [2],Survival (days) sc [2],Survival (days) SSVpo [2] [days],IC50 (ng/ml) K1 [3],"Activity (%) 3 mg/kg SSV po ([2]; percent reduction in parasitemia day 3 post-infection, single 3 mg/kg po in SSV) [%]","Activity (%) 10 mg/kg SSV po ([2]; percent reduction in parasitemia day 3 post-infection, single 10 mg/kg po in SSV) [%]",Survival (days) 10 mg/kg SSV po ([2]; single 10 mg/kg po in SSV) [days]
COC(=O)c1cn(C[C@H]2CC[C@]3(CC2)OOC2(O3)C3CC4CC(C3)CC2C4)cn1 (stereo partly drawn) [OZ224],3.0 ng/mL,0%,20%,5%,6.0 days,5.7 days,5.7,2.0 ng/mL,,,
c1ccc(CN2CCC3(CC2)OOC2(O3)C3CC4CC(C3)CC2C4)cc1 (stereo not drawn) [OZ220],4.9 ng/mL,40%,99.95%,0%,6.0 days,10.0 days,5.3,6.9 ng/mL,,,
O=S(=O)(c1ccc(Cl)cc1)N1CCC2(CC1)OOC1(O2)C2CC3CC(C2)CC1C3 (stereo not drawn) [OZ57],2.8 ng/mL,32%,98.4%,,6.0 days,7.7 days,,3.1 ng/mL,,,
N=C(N)N1CCC2(CC1)OOC1(O2)C2CC3CC(C2)CC1C3 (stereo not drawn) [OZ191],> 10 ng/mL,7%,17%,5%,5.7 days,6.0 days,5.7,6.0 ng/mL,,,
NC(=O)CNC(=O)C[C@H]1CC[C@]2(CC1)OO[C@]1(O2)C2CC3CC(C2)CC1C3 [OZ306],3.6 ng/mL,,,,,,,3.9 ng/mL,87,99.58,9.2
NC(=O)CN(CC(N)=O)C[C@H]1CC[C@]2(CC1)OOC1(O2)C2CC3CC(C2)CC1C3 (stereo partly drawn) [OZ236],2.0/2.0 ng/ml,89%,98.61%,86%,6.3 days,7.7 days,7.7,2.0/2.0 ng/ml,,,
Fc1ccc(C2(c3ccc(F)cc3)OOC3(CCC(c4ccccc4)CC3)O2)cc1 (stereo not drawn) [OZ66],36 ng/mL,0/NA/0%,0/NA/0%,,5.3 days,5.7 days,,44 ng/mL,,,
O=C(O)c1cn(C[C@H]2CC[C@]3(CC2)OOC2(O3)C3CC4CC(C3)CC2C4)cn1 (stereo partly drawn) [OZ225],> 10 ng/mL,0%,17%,0%,5.7 days,6.3 days,5.7,7.3 ng/mL,,,
OC1(c2nccs2)CCC2(CC1)OOC1(O2)C2CC3CC(C2)CC1C3 (stereo not drawn) [OZ247],2.3 ng/mL,57%,99.85%,27%,6.3 days,9.0 days,6.0,1.8 ng/mL,,,
N#CC1(c2ccccc2)CCC2(CC1)OOC1(O2)C2CC3CC(C2)CC1C3 (stereo not drawn) [OZ63],1.6/1.6 ng/ml,99.62%,99.91%,65%,7.3 days,9.3 days,6.0,1.6/1.6 ng/ml,,,
CN1CCN(C(=O)NC[C@H]2CC[C@]3(CC2)OOC2(O3)C3CC4CC(C3)CC2C4)CC1 (stereo partly drawn) [OZ267],0.34 ng/mL,99.92%,99.97%,99.89%,8.3 days,9.3 days,8.7,0.20 ng/mL,,,
c1ccc(C2CCC3(CC2)OOC2(CCC(c4ccccc4)CC2)O3)cc1 (stereo not drawn) [OZ62],28 ng/mL,0/NA/0%,0/NA/0%,,6.0 days,5.0 days,,33 ng/mL,,,
O=C(O)c1cccc([C@H]2CC[C@]3(CC2)OOC2(O3)C3CC4CC(C3)CC2C4)c1 (stereo partly drawn) [OZ198],>10/>10 ng/ml,4%,6%,6%,5.7 days,5.7 days,6.0,>10/>10 ng/ml,,,
O=C(O)c1nccnc1C(=O)N1CCC2(CC1)OOC1(O2)C2CC3CC(C2)CC1C3 (stereo not drawn) [OZ109],24 ng/mL,2%,24%,0%,5.7 days,6.3 days,5.7,21 ng/mL,,,
N#Cc1ccc(C2(c3ccccc3)OOC3(O2)C2CC4CC(C2)CC3C4)cc1 (stereo not drawn) [OZ124],1.7 ng/mL,72%,86%,17%,6.3 days,7.0 days,5.3,2.1 ng/mL,,,
CCCCS(=O)(=O)N1CCC2(CC1)OOC1(O2)C2CC3CC(C2)CC1C3 (stereo not drawn) [OZ92],0.40 ng/mL,81%,99.98%,35%,6.7 days,10.0 days,6.3,1.6 ng/mL,,,
O=C(O)CON=C1CCC2(CC1)OOC1(O2)C2CC3CC(C2)CC1C3 (stereo not drawn) [OZ54],35 ng/mL,85%,97%,,7.0/NA/7.0 days,7.0/NA/7.0 days,,32 ng/mL,,,
BrC[C@H]1CC[C@]2(CC1)OOC1(O2)C2CC3CC(C2)CC1C3 (stereo partly drawn) [OZ123],1.9 ng/mL,99.66%,99.96%,94%,8.0 days,16 days,7.0,1.6 ng/mL,,,
C1C2CC3CC1CC(C2)C31OOC2(CCC(NC3CC3)CC2)O1 (stereo not drawn) [OZ185],1.4 ng/mL,86%,99.96%,56%,7.7 days,10.7 days,6.7,1.1 ng/mL,,,
O=C(O)c1cncn1C[C@H]1CC[C@]2(CC1)OOC1(O2)C2CC3CC(C2)CC1C3 (stereo partly drawn) [OZ231],>10/>10 ng/ml,0/0/0%,0/0/0%,0/0/0%,5.3 days,6.0 days,5.7,>10/>10 ng/ml,,,
Fc1ccc(C2CCC3(CC2)OOC2(O3)C3CC4CC(C3)CC2C4)cc1 (stereo not drawn) [OZ41],4.6 ng/mL,99.98%,99.5%,81%,12.1 days,10.7 days,6.8,3.5 ng/mL,,,
c1cnn(C[C@H]2CC[C@]3(CC2)OOC2(O3)C3CC4CC(C3)CC2C4)c1 (stereo partly drawn) [OZ211],1.2 ng/mL,82%,99.90%,78%,8.0 days,8.7 days,7.3,1.0 ng/mL,,,
CN(C)C(=O)NC[C@H]1CC[C@]2(CC1)OOC1(O2)C2CC3CC(C2)CC1C3 (stereo partly drawn) [OZ266],1.5 ng/mL,99%,99.75%,99.39%,13.7 days,11.7 days,11.7,1.1 ng/mL,,,
CCOC(=O)c1ccc(C2(c3ccc(C(=O)OCC)cc3)OOC3(O2)C2CC4CC(C2)CC3C4)cc1 (stereo not drawn) [OZ125],> 100 ng/mL,8%,0%,0%,5.3 days,6.0 days,5.7,68 ng/mL,,,
COC(=O)c1ccc(C[C@H]2CC[C@]3(CC2)OOC2(O3)C3CC4CC(C3)CC2C4)cc1 (stereo partly drawn) [OZ204],>10/>10 ng/ml,0/0/0%,0/0/0%,0/0/0%,6.0 days,6.0 days,6.3,>10/>10 ng/ml,,,
